Results taken from ChEMBL document CHEMBL4342484, “Structure-Activity Relationship for the Oxadiazole Class of Antibacterials” (ACS Med Chem Lett, 2020).
In brackets after ≈: the same amount, converted by molar mass.

Assays:
Staphylococcus aureus = test: Antibacterial activity against Staphylococcus aureus ATCC 29213 by broth microdilution method; assay type: functional
HepG2 = test: Cytotoxicity against human HepG2 cells assessed as reduction in cell viability by XTT assay; assay type: cell-based
[1] = Hemolytic activity in human RBC relative to control; assay type: ADME, cell-based, Erythrocyte; details: red blood cells (erythrocytes), read-out: Activity
[2] = Plasma protein binding in human at […] incubated for 2 hrs by UPLC analysis; assay type: ADME, cell-free; details: read-out: PPB (converted)

MIC (Staphylococcus aureus) [µg/mL] | SMILES | further results
≥ 128 | Cl.NC1CCC(Oc2ccc(-c3noc(-c4ccc(O)cc4)n3)cc2)CC1 (stereo not given) | 
64 (≈ 207 µM) | Oc1ccc(-c2nc(-c3ccc(OC4CNC4)cc3)no2)cc1 | 
32 (≈ 119 µM) | COc1ccc(-c2noc(-c3ccc(O)cc3)n2)cc1 | 
≥ 128 | Oc1ccc(-c2nc(-c3ccc4oc5ccccc5c4c3)no2)cc1 | 
2 (≈ 5.39 µM) | [N-]=[N+]=Nc1ccc(Oc2ccc(-c3noc(-c4ccc(O)cc4)n3)cc2)cc1 | 
4 (≈ 8.77 µM) | Oc1ccc(-c2nc(-c3ccc(Oc4cccc(I)c4)cc3)no2)cc1 | 
1 (≈ 3.1 µM) | Oc1ccc(-c2nc(-c3ccc(OC(F)(F)F)cc3)no2)cc1 | IC50 (HepG2): 84.9 µg/mL (≈ 263 µM); hemolysis [1]: 16%
≥ 128 | CC(C)(C)OC(=O)N1CCC(Oc2ccc(-c3noc(-c4n[nH]cc4Cl)n3)cc2)C1 (stereo not given) | 
≥ 128 | CC(C)(C)OC(=O)NCCCOc1ccc(-c2noc(-c3ccc(O)cc3)n2)cc1 | 
4 (≈ 10.7 µM) | O=[N+]([O-])c1ccccc1Oc1ccc(-c2noc(-c3ccc(O)cc3)n2)cc1 | 
128 (≈ 307 µM) | CS(=O)(=O)c1ccc(Oc2ccc(-c3noc(-c4n[nH]cc4Cl)n3)cc2)cc1 | 
128 (≈ 356 µM) | CN1CCCC(Oc2ccc(-c3noc(-c4n[nH]cc4Cl)n3)cc2)C1 (stereo not given) | 
128 (≈ 352 µM) | N#Cc1ccc(Oc2ccc(-c3noc(-c4n[nH]cc4Cl)n3)cc2)cc1 | 
2 (≈ 5.55 µM) | COc1ccc(Oc2ccc(-c3noc(-c4ccc(O)cc4)n3)cc2)cc1 | 
≥ 128 | CC(C)S(=O)(=O)Oc1ccc(-c2noc(-c3ccc(O)cc3)n2)cc1 | 
≥ 128 | N#Cc1ccc(Oc2ccc(-c3noc(-c4ccc(O)cc4)n3)cc2)cc1 | 
64 (≈ 182 µM) | CN1CCCC(Oc2ccc(-c3noc(-c4ccc(O)cc4)n3)cc2)C1 (stereo not given) | 
≥ 128 | Oc1ccc(-c2nc(-c3ccc4oc5ccc(F)cc5c4c3)no2)cc1 | 

MIC (Staphylococcus aureus) [µg/mL] | SMILES | further results
16 (≈ 46.2 µM) | Oc1ccc(Oc2ccc(-c3noc(-c4ccc(O)cc4)n3)cc2)cc1 | 
≥ 128 | Clc1c[nH]nc1-c1nc(-c2ccc(OC3CCCC3)cc2)no1 | 
8 (≈ 18.9 µM) | Oc1ccc(-c2nc(-c3ccc(Oc4ccccc4CBr)cc3)no2)cc1 | 
2 (≈ 4.89 µM) | Oc1ccc(-c2nc(-c3ccc(Oc4ccc(Br)cc4)cc3)no2)cc1 | 
0.5 (≈ 1.33 µM) | Fc1ccc(Oc2ccc(-c3noc(-c4n[nH]cc4Cl)n3)cc2)cc1F | fraction unbound at 2 h [2]: 0.011; IC50 (HepG2): 17.7 µg/mL (≈ 47.2 µM); hemolysis [1]: 1.3%
64 (≈ 171 µM) | O=C(O)c1cccc(Oc2ccc(-c3noc(-c4ccc(O)cc4)n3)cc2)c1 | 
≥ 128 | Oc1ccc(-c2nc(-c3ccc(Oc4ccccn4)cc3)no2)cc1 | 
≥ 128 | CC(C)(C)Oc1ccc(-c2noc(-c3ccc(O)cc3)n2)cc1 | 
≥ 128 | CS(=O)(=O)Oc1ccc(-c2noc(-c3ccc(O)cc3)n2)cc1 | 
1 (≈ 2.45 µM) | Clc1ccc(Oc2ccc(-c3noc(-c4n[nH]cc4Cl)n3)cc2)cc1Cl | fraction unbound at 2 h [2]: 0.022; IC50 (HepG2): 17.2 µg/mL (≈ 42.2 µM); hemolysis [1]: 1.8%
≥ 128 | FC(F)(F)Oc1ccc(-c2noc(-c3n[nH]cc3Cl)n2)cc1 | 
2 (≈ 5.39 µM) | [N-]=[N+]=Nc1cccc(Oc2ccc(-c3noc(-c4ccc(O)cc4)n3)cc2)c1 | 
≥ 128 | CC(C)(C)OC(=O)NC1CCC(Oc2ccc(-c3noc(-c4ccc(O)cc4)n3)cc2)CC1 (stereo not given) | 
≥ 128 | CC(C)(C)OC(=O)N1CCC(Oc2ccc(-c3noc(-c4n[nH]cc4Cl)n3)cc2)CC1 | 
16 (≈ 39 µM) | Cc1nc2cc(Oc3ccc(-c4noc(-c5n[nH]cc5Cl)n4)cc3)ccc2s1 | 
> 128 | FC(F)(F)Oc1ccc2oc3ccc(-c4noc(-c5n[nH]cc5Cl)n4)cc3c2c1 | 
> 128 | CC(=O)NCCOc1ccc(-c2noc(-c3ccc(O)cc3)n2)cc1 | 

SMILES | MIC (Staphylococcus aureus) [µg/mL] | further results
Clc1c[nH]nc1-c1nc(-c2ccc(OC3CN4CCC3CC4)cc2)no1 (stereo not given) | 128 (≈ 344 µM) | 
CN1[C@@H]2CC[C@@H]1CC(Oc1ccc(-c3noc(-c4n[nH]cc4Cl)n3)cc1)C2 (stereo not given in full) | 64 (≈ 166 µM) | 
